{"source": "paper PMC2911226", "about": "“Structural and Biochemical Characterization of the Human Cyclophilin Family of Peptidyl-Prolyl Isomerases” (PLoS Biology, 2010)", "key": {"PPWD1": {"biological_target": "T1, PPWD1 (Homo sapiens, UniProt Q96BP3)", "T1 construct": "His6 with thrombin cleavage site (N); made in house; host or cells: E. coli BL21 Gold DE3", "T1 sequence (Q96BP3 490-645 limits assumed)": "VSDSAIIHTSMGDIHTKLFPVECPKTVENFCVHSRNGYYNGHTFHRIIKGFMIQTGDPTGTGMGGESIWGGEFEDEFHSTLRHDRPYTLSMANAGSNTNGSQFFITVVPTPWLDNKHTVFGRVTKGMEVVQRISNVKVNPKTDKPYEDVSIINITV", "experiment": "Thermal stabilization assay (StarGazer static light scattering)", "type": "binding", "conditions": "protein approximately 20 µM, compound 50 µM; shift vs basal Tagg", "excerpt": "(§1) In order to elucidate the function of residues in the extended active site of the PPIase domain of the human cyclophilins, we probed the binding and catalytic function of these domains against either substrate or small-molecule inhibitors (see Figure 1 and Datapack S1 for graphical and tabular depictions of the active site). Three assays were utilized to explore these functions. […] This assay has been shown in several studies to be a reliable readout of small molecule binding for kinase and other enzyme families,[38]. […] Because of the inherent thermal stability characteristics of PPID and RanBP2, this technique was unable to distinguish between apo and cyclosporin-bound forms of those domains.\n(§2) All protein samples used for static light scattering (StarGazer) trials were assessed for purity utilizing SDS-PAGE and verified for mass accuracy using mass spectrometry. Methods were generally as described as in [38]; protein at approximately 20 µM concentration was heated from room temperature to 80°C in the presence or absence of small molecules, including cyclosporins A, C, D, or H (LKT Labs, MN, USA). The […] were originally prepared in 100% DMSO at 50–100 mM concentration, then diluted to 50 µM for screening, thereby ensuring the final DMSO concentration was less than 5% during the experiment. […] Each compound was tested at least twice."}, "PPIF": {"biological_target": "T2, PPIF (Homo sapiens, UniProt P30405)", "T2 construct": "His6 (thrombin cleavage site) (N); made in house; host or cells: E. coli BL21 Gold DE3", "T2 sequence (P30405 49-205 limits assumed)": "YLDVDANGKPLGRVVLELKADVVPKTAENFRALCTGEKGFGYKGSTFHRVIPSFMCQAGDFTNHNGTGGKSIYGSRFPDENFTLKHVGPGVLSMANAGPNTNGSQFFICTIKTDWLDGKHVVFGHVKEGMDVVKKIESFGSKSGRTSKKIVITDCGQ", "experiment": "Thermal stabilization assay (StarGazer static light scattering)", "type": "binding", "conditions": "protein approximately 20 µM, compound 50 µM; shift vs basal Tagg", "excerpt": "as §1, §2"}, "PPIL1": {"biological_target": "T3, PPIL1 (Homo sapiens, UniProt Q9Y3C6)", "T3 construct": "His6 (thrombin cleavage site) (N); made in house; host or cells: E. coli BL21 Gold DE3", "T3 sequence (Q9Y3C6 10-164 limits assumed)": "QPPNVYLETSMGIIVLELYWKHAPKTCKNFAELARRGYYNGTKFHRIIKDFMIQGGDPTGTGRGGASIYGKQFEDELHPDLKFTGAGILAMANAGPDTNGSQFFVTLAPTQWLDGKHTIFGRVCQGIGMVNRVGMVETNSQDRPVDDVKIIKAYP", "experiment": "Thermal stabilization assay (StarGazer static light scattering)", "type": "binding", "conditions": "protein approximately 20 µM, compound 50 µM; shift vs basal Tagg", "excerpt": "as §1, §2"}, "PPIA": {"biological_target": "T4, PPIA (Homo sapiens, UniProt P62937)", "T4 construct": "His6 (thrombin cleavage site) (N); made in house; host or cells: E. coli BL21 Gold DE3", "T4 sequence (P62937 7-163 limits assumed)": "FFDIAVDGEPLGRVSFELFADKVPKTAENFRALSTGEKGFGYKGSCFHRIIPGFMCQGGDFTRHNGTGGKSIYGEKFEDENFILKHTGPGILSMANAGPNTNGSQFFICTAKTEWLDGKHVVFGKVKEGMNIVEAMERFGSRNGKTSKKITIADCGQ", "experiment": "Thermal stabilization assay (StarGazer static light scattering)", "type": "binding", "conditions": "protein approximately 20 µM, compound 50 µM; shift vs basal Tagg", "excerpt": "as §1, §2"}, "PPIB": {"biological_target": "T5, PPIB (Homo sapiens, UniProt P23284)", "T5 construct": "His6 (thrombin cleavage site) (N); made in house; host or cells: E. coli BL21 Gold DE3", "T5 sequence (P23284 47-204 limits assumed)": "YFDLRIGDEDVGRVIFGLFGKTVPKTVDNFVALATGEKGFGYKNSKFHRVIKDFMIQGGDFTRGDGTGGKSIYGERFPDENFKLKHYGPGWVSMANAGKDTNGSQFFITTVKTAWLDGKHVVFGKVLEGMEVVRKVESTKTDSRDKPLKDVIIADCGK", "experiment": "Thermal stabilization assay (StarGazer static light scattering)", "type": "binding", "conditions": "protein approximately 20 µM, compound 50 µM; shift vs basal Tagg", "excerpt": "as §1, §2"}, "PPIG [1]": {"biological_target": "T6, PPIG (Homo sapiens, UniProt Q13427)", "T6 construct": "His6 (thrombin cleavage site) (N); made in house; host or cells: E. coli BL21 Gold DE3 (general method; the K125A/E126A crystallization mutant was grown in BL21 DE3 Codon Plus RIL)", "T6 sequence (Q13427 11-176 limits assumed)": "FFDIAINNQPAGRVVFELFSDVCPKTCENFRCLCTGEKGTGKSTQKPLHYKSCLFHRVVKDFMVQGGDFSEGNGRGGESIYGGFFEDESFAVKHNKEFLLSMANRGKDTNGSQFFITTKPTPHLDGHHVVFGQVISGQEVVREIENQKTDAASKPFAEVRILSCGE", "experiment": "Thermal stabilization assay (StarGazer static light scattering)", "type": "binding", "conditions": "protein approximately 20 µM, compound 50 µM; shift vs basal Tagg", "excerpt": "as §1, §2"}, "NKTR": {"biological_target": "T7, NKTR (Homo sapiens, UniProt P30414)", "T7 construct": "His6 with thrombin cleavage site (N); made in house; host or cells: E. coli BL21 Gold DE3", "T7 sequence (P30414 10-175 limits assumed)": "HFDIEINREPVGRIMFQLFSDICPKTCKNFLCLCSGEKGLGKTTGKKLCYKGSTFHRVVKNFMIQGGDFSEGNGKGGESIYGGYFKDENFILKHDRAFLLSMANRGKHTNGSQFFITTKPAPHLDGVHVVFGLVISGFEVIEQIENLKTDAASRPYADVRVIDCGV", "experiment": "Thermal stabilization assay (StarGazer static light scattering)", "type": "binding", "conditions": "protein approximately 20 µM, compound 50 µM; shift vs basal Tagg", "excerpt": "as §1, §2"}, "PPIE": {"biological_target": "T8, PPIE (Homo sapiens, UniProt Q9UNP9)", "T8 construct": "His6 (thrombin cleavage site) (N); made in house; host or cells: E. coli BL21 Gold DE3", "T8 sequence (Q9UNP9 143-299 limits assumed)": "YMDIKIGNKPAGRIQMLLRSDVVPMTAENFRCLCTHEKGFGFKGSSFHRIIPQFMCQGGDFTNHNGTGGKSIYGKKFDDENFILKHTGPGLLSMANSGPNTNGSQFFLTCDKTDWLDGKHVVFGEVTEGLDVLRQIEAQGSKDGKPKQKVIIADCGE", "experiment": "Thermal stabilization assay (StarGazer static light scattering)", "type": "binding", "conditions": "protein approximately 20 µM, compound 50 µM; shift vs basal Tagg", "excerpt": "as §1, §2"}, "PPIC": {"biological_target": "T9, PPIC (Homo sapiens, UniProt P45877)", "T9 construct": "His6 (thrombin cleavage site) (N); made in house; host or cells: E. coli BL21 Gold DE3", "T9 sequence (P45877 41-198 limits assumed)": "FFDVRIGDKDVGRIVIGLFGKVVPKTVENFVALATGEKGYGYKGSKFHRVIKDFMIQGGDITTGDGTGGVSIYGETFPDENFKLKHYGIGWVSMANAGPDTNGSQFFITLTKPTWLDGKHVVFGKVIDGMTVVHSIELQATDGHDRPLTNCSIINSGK", "experiment": "Thermal stabilization assay (StarGazer static light scattering)", "type": "binding", "conditions": "protein approximately 20 µM, compound 50 µM; shift vs basal Tagg", "excerpt": "as §1, §2"}, "PPIH": {"biological_target": "T10, PPIH (Homo sapiens, UniProt O43447)", "T10 construct": "His6 (thrombin cleavage site) (N); made in house; host or cells: E. coli BL21 Gold DE3", "T10 sequence (O43447 14-176 limits assumed)": "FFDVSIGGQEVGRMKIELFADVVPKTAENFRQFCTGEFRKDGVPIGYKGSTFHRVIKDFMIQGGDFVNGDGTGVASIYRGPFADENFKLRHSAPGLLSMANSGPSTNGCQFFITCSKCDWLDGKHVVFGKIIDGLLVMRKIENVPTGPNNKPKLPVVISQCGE", "experiment": "Thermal stabilization assay (StarGazer static light scattering)", "type": "binding", "conditions": "protein approximately 20 µM, compound 50 µM; shift vs basal Tagg", "excerpt": "as §1, §2"}, "PPIL2": {"biological_target": "T11, PPIL2 (Homo sapiens, UniProt Q13356)", "T11 construct": "His6 with thrombin cleavage site (N); made in house; host or cells: E. coli BL21 Gold DE3", "T11 sequence (Q13356 278-433 limits assumed)": "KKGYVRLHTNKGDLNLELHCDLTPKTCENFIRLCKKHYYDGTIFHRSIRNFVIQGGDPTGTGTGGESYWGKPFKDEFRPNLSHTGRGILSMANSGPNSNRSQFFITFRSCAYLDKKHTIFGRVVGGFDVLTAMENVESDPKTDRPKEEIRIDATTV", "experiment": "NMR-based tetrapeptide activity assay (1H/1H TOCSY)", "type": "biochemical", "excerpt": "(§3) A two-dimensional NMR experiment (1H/1H TOCSY) described previously,[40], the only in vitro protease-free method available to probe for both substrate binding and catalytic activity of cyclophilins, was used to assess the commercially available tetrapeptides of sequence AAPF, AFPF, and AGPF [34]. […] A number of articles have documented the drawbacks of the protease-coupled assay,[42]–[44], an obvious example being that the addition of protease to the reaction mixture in the chymotrypsin-coupled assay requires additional testing to ensure that the enzymes and substrates being screened are not proteolytic targets. […] We detected binding and turnover for at least one of the tetrapeptide substrates tested for PPIA, PPIB, PPIC, PPID, PPIE, PPIF, PPIG, PPIH, PPIL1, PPWD1, and NKTR (Table 1; see Figure S1 for representative data showing binding and activity). This correlated well with previously determined activities,[20],[21],[28],[30],[45],[46], and established activity measurements for PPIF, PPIG, and NKTR.\n(§4) Most protein samples aimed at assessing binding and/or catalysis of tetrapeptide substrates were diluted to 500 µL with 10% D2O and placed into a Shigemi microcell (Allison Park, PA, USA). Typical samples contained 0.075 mM protein and 2 mM of suc-AAPF-pNA, suc-AFPF-pNA, or suc-AGPF-pNA (Bachem), along with 100 mM phosphate buffer pH 7 and 100 mM NaCl. Spectra were collected at 25°C on a Varian 600 or 900 MHz spectrometer (Palo Alto, CA, USA). Spectra were acquired using standard Varian BioPack sequences, processed using NMRpipe software and visualized using CCPN software. For samples used to assess binding of PPIA to peptides DEGPF, DFGPF, DYGPF, YGGPF, or VRGPF, samples were as above except protein concentration was 0.3 mM and spectra were collected at 10°C."}, "PPIG [2]": {"biological_target": "T6, PPIG", "experiment": "NMR-based tetrapeptide activity assay (1H/1H TOCSY)", "type": "biochemical", "conditions": "collapse of substrate cis/trans peaks; at least one of suc-AAPF-pNA, suc-AFPF-pNA, suc-AGPF-pNA; 25°C", "excerpt": "as §3, §4"}, "PPID": {"biological_target": "T12, PPID (Homo sapiens, UniProt Q08752)", "T12 construct": "His6 (thrombin cleavage site) (N); made in house; host or cells: E. coli BL21 Gold DE3", "T12 sequence (Q08752 19-183 limits assumed)": "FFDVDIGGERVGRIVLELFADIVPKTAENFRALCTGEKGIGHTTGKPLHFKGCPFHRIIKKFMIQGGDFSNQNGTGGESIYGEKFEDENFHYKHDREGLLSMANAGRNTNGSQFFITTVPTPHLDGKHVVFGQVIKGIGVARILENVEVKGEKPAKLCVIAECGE", "experiment": "NMR-based tetrapeptide activity assay (1H/1H TOCSY)", "type": "biochemical", "conditions": "collapse of substrate cis/trans peaks; at least one of suc-AAPF-pNA, suc-AFPF-pNA, suc-AGPF-pNA; 25°C", "excerpt": "as §3, §4"}, "SDCCAG-10": {"biological_target": "T13, SDCCAG-10 (Homo sapiens, UniProt Q6UX04)", "T13 construct": "His6 with thrombin cleavage site (N); made in house; host or cells: E. coli BL21 Gold DE3", "T13 sequence (Q6UX04 11-166 limits assumed)": "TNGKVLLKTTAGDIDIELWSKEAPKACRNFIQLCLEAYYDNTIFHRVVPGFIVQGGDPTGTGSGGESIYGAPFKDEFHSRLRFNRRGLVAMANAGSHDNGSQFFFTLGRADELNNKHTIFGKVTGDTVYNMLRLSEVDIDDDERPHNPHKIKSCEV", "experiment": "NMR-based tetrapeptide activity assay (1H/1H TOCSY)", "type": "biochemical", "excerpt": "as §3, §4"}, "[3]": {"conditions": "collapse of substrate cis/trans peaks, suc-AAPF-pNA, suc-AFPF-pNA, suc-AGPF-pNA, 25°C"}}}
{"compound": "C/C=C/C[C@@H](C)[C@@H](O)[C@H]1C(=O)N[C@@H]([C@@H](C)O)C(=O)N(C)CC(=O)N(C)[C@@H](CC(C)C)C(=O)N[C@@H](C(C)C)C(=O)N(C)[C@@H](CC(C)C)C(=O)N[C@@H](C)C(=O)N[C@H](C)C(=O)N(C)[C@@H](CC(C)C)C(=O)N(C)[C@@H](CC(C)C)C(=O)N(C)[C@@H](C(C)C)C(=O)N1C", "note": "[CsC, cyclosporin C]", "values": [{"measurement": "Thermal Stability ΔTagg, CsC", "setting": "PPWD1", "value": 5.2, "unit": "°C"}, {"measurement": "Thermal Stability ΔTagg, CsC", "setting": "PPIF", "value": 10.7, "unit": "°C"}, {"measurement": "Thermal Stability ΔTagg, CsC", "setting": "PPIL1", "value": 1.7, "unit": "°C"}, {"measurement": "Thermal Stability ΔTagg, CsC", "setting": "PPIA", "value": 1.9, "unit": "°C"}, {"measurement": "Thermal Stability ΔTagg, CsC", "setting": "PPIB", "value": 3.4, "unit": "°C"}, {"measurement": "Thermal Stability ΔTagg, CsC", "setting": "PPIG [1]", "value": 2, "unit": "°C"}, {"measurement": "Thermal Stability ΔTagg, CsC", "setting": "NKTR", "value": 3.0, "unit": "°C"}, {"measurement": "Thermal Stability ΔTagg, CsC", "setting": "PPIE", "value": 6.8, "unit": "°C"}, {"measurement": "Thermal Stability ΔTagg, CsC", "setting": "PPIC", "value": 7.0, "unit": "°C"}, {"measurement": "Thermal Stability ΔTagg, CsC", "setting": "PPIH", "value": 7.3, "unit": "°C"}]}
{"compound": "suc-AGPF-pNA", "values": [{"measurement": "Binding of substrate (peak centers shift without coalescence)", "setting": "PPIL2; Figure S1A", "value": "binding, but not catalysis"}, {"measurement": "Tetrapeptide Activity", "setting": "PPIL2; [3]", "value": "not active"}, {"measurement": "Tetrapeptide Activity", "setting": "PPIG [2]", "value": "active isomerases"}, {"measurement": "Tetrapeptide Activity", "setting": "PPID", "value": "active isomerases"}, {"measurement": "Binding of substrate (peak centers shift without coalescence)", "setting": "SDCCAG-10; Figure S1A", "value": "binding, but not catalysis"}, {"measurement": "Tetrapeptide Activity", "setting": "SDCCAG-10; [3]", "value": "not active"}]}
